Data set [1] addresses T1, PI3K beta (Homo sapiens, UniProt P42338).
T1 construct: for the full-length p110-b subunit are generated and fused by overlapping PCR; His tag (C); made in house; host or cells: baculovirus BV949; Tn5 (Trichoplusia ni) or TiniPro insect cells
Kind of data set: PI3K beta kinase assay (Kinase-Glo luminescence). Type of data set: biochemical. The conditions noted are these: read-out: EPK_PI3Kbeta/IC50. The gist of the method:
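PI3Kβ construct BV949 (p85 iSH2–p110β full-length, C-His), 25 nM, reacted with 1 μM ATP and 10 μg/mL phosphatidylinositol in Tris pH 7.5, MgCl2, NaCl, CHAPS, DTT buffer, 60 min at room temperature. Remaining ATP by Kinase-Glo luminescence; IC50 from 4-parameter logistic fit of 8 concentrations.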

Data set [2] is described as follows: High-throughput equilibrium solubility at pH 6.8. Type of data set: physicochemical. As to conditions: pH 6.8, aqueous buffer, thermodynamic from solid; read-out: HT-Eq Sol/pH 6.8. The method, boiled down: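 Solubility was measured at pH 6.8 following the cited Zhou et al. (2007) procedure.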

pIC50: −log10 of the molar value. Values after ≈ are worked out from the molar mass of the structure shown.

We go through 17 molecules from patent US20100311714A1, “1H-IMIDAZO[4,5-c]QUINOLINONE COMPOUNDS” (priority 2009, published 2010).

T1 sequence (P42338 with tags, fused parts or gaps limits assumed): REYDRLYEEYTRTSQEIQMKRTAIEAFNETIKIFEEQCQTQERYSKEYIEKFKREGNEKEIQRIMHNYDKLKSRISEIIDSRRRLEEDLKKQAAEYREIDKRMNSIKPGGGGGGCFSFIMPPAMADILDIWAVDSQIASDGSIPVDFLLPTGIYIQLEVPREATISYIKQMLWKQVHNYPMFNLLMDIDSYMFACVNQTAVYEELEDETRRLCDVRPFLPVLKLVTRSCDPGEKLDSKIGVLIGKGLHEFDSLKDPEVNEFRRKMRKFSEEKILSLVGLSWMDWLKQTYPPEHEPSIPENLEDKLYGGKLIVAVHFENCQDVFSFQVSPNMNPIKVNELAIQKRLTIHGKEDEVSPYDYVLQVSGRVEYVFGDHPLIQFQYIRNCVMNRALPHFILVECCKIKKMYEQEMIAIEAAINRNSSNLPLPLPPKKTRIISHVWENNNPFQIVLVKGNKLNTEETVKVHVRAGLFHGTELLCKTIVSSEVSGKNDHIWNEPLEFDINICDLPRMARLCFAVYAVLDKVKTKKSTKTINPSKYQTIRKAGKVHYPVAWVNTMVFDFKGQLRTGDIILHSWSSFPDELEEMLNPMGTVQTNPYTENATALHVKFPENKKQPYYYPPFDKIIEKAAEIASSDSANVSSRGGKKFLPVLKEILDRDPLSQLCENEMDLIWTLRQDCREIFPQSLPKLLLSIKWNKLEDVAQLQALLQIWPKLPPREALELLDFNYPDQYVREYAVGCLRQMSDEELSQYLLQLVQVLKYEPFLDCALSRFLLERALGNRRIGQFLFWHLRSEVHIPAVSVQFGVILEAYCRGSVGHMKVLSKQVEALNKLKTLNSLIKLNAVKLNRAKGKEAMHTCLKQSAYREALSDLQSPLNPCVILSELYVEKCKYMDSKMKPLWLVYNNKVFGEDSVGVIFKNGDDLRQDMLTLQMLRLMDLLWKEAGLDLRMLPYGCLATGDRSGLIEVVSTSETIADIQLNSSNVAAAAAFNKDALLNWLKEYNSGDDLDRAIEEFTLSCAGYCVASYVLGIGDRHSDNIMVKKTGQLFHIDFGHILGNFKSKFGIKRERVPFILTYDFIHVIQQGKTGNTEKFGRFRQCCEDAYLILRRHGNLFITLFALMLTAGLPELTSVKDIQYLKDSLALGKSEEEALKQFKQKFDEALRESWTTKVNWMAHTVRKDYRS

In the case of `CNc1ncc(-c2ccc3ncc4c(c3c2)n(-c2ccc(N3CC(O)C3)nc2C)c(=O)n4C)cc1C(F)(F)F` [Example 29.4, 1-[6-(3-Hydroxy-azetidin-1-yl)-2-methyl-pyridin-3-yl]-3-methyl-8-(6-methylamino-5-trifluoromethyl-pyridin-3-yl)-1,3-dihydro-imidazo[4,5-c]quinolin-2-one], in data set [1], the pIC50 is 7.16. In addition, the solubility thermodynamic in data set [2] was 44 µg/mL (≈ 82.2 µM).
The matching figures for `COc1cc(-c2ccc3ncc4c(c3c2)n(-c2ccc(N3CC(O)C3)nc2C)c(=O)n4C)cnc1CO` [Example 29.5, 1-[6-(3-Hydroxy-azetidin-1-yl)-2-methyl-pyridin-3-yl]-8-(6-hydroxymethyl-5-methoxy-pyridin-3-yl)-3-methyl-1,3-dihydro-imidazo[4,5-c]quinolin-2-one]: 6.56 and 256 µg/mL (≈ 513 µM).
The matching figures for `COc1ncc(-c2ccc3ncc4c(c3c2)n(-c2ccc(N3CC(O)C3)nc2C)c(=O)n4C)c(OC)n1` [Example 29.6, 8-(2,4-Dimethoxy-pyrimidin-5-yl)-1-[6-(3-hydroxy-azetidin-1-yl)-2-methyl-pyridin-3-yl]-3-methyl-1,3-dihydro-imidazo[4,5-c]quinolin-2-one]: 7.23 and 15 µg/mL (≈ 30 µM).
The corresponding values for `CNc1ncc(-c2ccc3ncc4c(c3c2)n(-c2ccc(C(C)(C)O)nc2C)c(=O)n4C)cc1F` [Example 31.1, 8-(5-Fluoro-6-methylamino-pyridin-3-yl)-1-[6-(1-hydroxy-1-methyl-ethyl)-2-methyl-pyridin-3-yl]-3-methyl-1,3-dihydro-imidazo[4,5-c]quinolin-2-one] are 6.66 and 3 µg/mL (≈ 6.35 µM).
For `CCOc1ccc(-c2ccc3ncc4c(c3c2)n(-c2ccc(C(C)(C)O)nc2C)c(=O)n4C)cn1` [Example 31.4, 8-(6-Ethoxy-pyridin-3-yl)-1-[6-(1-hydroxy-1-methyl-ethyl)-2-methyl-pyridin-3-yl]-3-methyl-1,3-dihydro-imidazo[4,5-c]quinolin-2-one], the pIC50 in data set [1] is 6.47. Besides, the solubility thermodynamic in data set [2] amounted to 5 µg/mL (≈ 10.6 µM).
The matching figures for `Cc1nc(C(C)(C)O)ccc1-n1c(=O)n(C)c2cnc3ccc(-c4cnc(N)c(C(F)(F)F)c4)cc3c21` [Example 31.5, 8-(6-Amino-5-trifluoromethyl-pyridin-3-yl)-1-[6-(1-hydroxy-1-methyl-ethyl)-2-methyl-pyridin-3-yl]-3-methyl-1,3-dihydro-imidazo[4,5-c]quinolin-2-one]: 8.05 and 3 µg/mL (≈ 5.9 µM).
As for `Cc1nc(C(C)(C)O)ccc1-n1c(=O)n(C)c2cnc3ccc(-c4cncc(C(C)(C)C#N)c4)cc3c21` [Example 31.6, 2-(5-{1-[6-(1-Hydroxy-1-methyl-ethyl)-2-methyl-pyridin-3-yl]-3-methyl-2-oxo-2,3-dihydro-1H-imidazo[4,5-c]quinolin-8-yl}-pyridin-3-yl)-2-methyl-propionitrile], in data set [1], the pIC50 is 7.60. For the same molecule, the solubility thermodynamic in data set [2] came to 3 µg/mL (≈ 6.09 µM).
The corresponding values for `CCNc1ncc(-c2ccc3ncc4c(c3c2)n(-c2ccc(C(C)(C)O)nc2C)c(=O)n4C)cn1` [Example 31.7, 8-(2-Ethylamino-pyrimidin-5-yl)-1-[6-(1-hydroxy-1-methyl-ethyl)-2-methyl-pyridin-3-yl]-3-methyl-1,3-dihydro-imidazo[4,5-c]quinolin-2-one] are 6.20 and 14 µg/mL (≈ 29.8 µM).
In the case of `Cc1nc(C(C)(C)O)ccc1-n1c(=O)n(C)c2cnc3ccc(-c4cncc(C5(C#N)CCC5)c4)cc3c21` [Example 31.8, 1-(5-{1-[6-(1-Hydroxy-1-methyl-ethyl)-2-methyl-pyridin-3-yl]-3-methyl-2-oxo-2,3-dihydro-1H-imidazo[4,5-c]quinolin-8-yl}-pyridin-3-yl)-cyclobutanecarbonitrile], the pIC50 in data set [1] was 7.52. In data set [2], the solubility thermodynamic was determined as 111 µg/mL (≈ 220 µM).
The matching figures for `CNc1ncc(-c2ccc3ncc4c(c3c2)n(-c2ccc(N3CC[C@H](O)C3)nc2C)c(=O)n4C)cn1` [Example 32.1, 1-[6-((S)-3-Hydroxy-pyrrolidin-1-yl)-2-methyl-pyridin-3-yl]-3-methyl-8-(2-methylamino-pyrimidin-5-yl)-1,3-dihydro-imidazo[4,5-c]quinolin-2-one]: 6.99 and 64 µg/mL (≈ 133 µM).
For the molecule `CNc1ncc(-c2ccc3ncc4c(c3c2)n(-c2ccc(N3CC[C@H](O)C3)nc2C)c(=O)n4C)cc1F` [Example 32.2, 8-(5-Fluoro-6-methylamino-pyridin-3-yl)-1-[6-((S)-3-hydroxy-pyrrolidin-1-yl)-2-methyl-pyridin-3-yl]-3-methyl-1,3-dihydro-imidazo[4,5-c]quinolin-2-one], the pIC50 in data set [1] was 5.97. Moreover, the solubility thermodynamic in data set [2] amounted to 7 µg/mL (≈ 14 µM).
The corresponding values for `COc1ncc(-c2ccc3ncc4c(c3c2)n(-c2ccc(N3CC[C@H](O)C3)nc2C)c(=O)n4C)c(OC)n1` [Example 32.3, 8-(2,4-Dimethoxy-pyrimidin-5-yl)-1-[6-((S)-3-hydroxy-pyrrolidin-1-yl)-2-methyl-pyridin-3-yl]-3-methyl-1,3-dihydro-imidazo[4,5-c]quinolin-2-one] are 6.72 and 30 µg/mL (≈ 58.4 µM).
`CNc1ncc(-c2ccc3ncc4c(c3c2)n(-c2ccc(N3CC[C@H](O)C3)nc2C)c(=O)n4C)cc1C(F)(F)F` [Example 32.5, 1-[6-((S)-3-Hydroxy-pyrrolidin-1-yl)-2-methyl-pyridin-3-yl]-3-methyl-8-(6-methylamino-5-trifluoromethyl-pyridin-3-yl)-1,3-dihydro-imidazo[4,5-c]quinolin-2-one]: in data set [1], the pIC50 is 7.43. In addition, in data set [2], the solubility thermodynamic amounted to 49 µg/mL (≈ 89.2 µM).
As to `Cc1nc(N2CC[C@H](O)C2)ccc1-n1c(=O)n(C)c2cnc3ccc(-c4cncc(OC(C)C)c4)cc3c21` [Example 32.8, 1-[6-((S)-3-Hydroxy-pyrrolidin-1-yl)-2-methyl-pyridin-3-yl]-8-(5-isopropoxy-pyridin-3-yl)-3-methyl-1,3-dihydro-imidazo[4,5-c]quinolin-2-one], in data set [1], the pIC50 was 6.67. For the same molecule, the solubility thermodynamic in data set [2] turned out to be 120 µg/mL (≈ 235 µM).
In the case of `Cc1nc(C(F)(F)F)ccc1-n1c(=O)n(C)c2cnc3ccc(-c4cncc(C(C)(C)O)c4)cc3c21` [Example 33.1, 8-[5-(1-Hydroxy-1-methyl-ethyl)-pyridin-3-yl]-3-methyl-1-(2-methyl-6-trifluoromethyl-pyridin-3-yl)-1,3-dihydro-imidazo[4,5-c]quinolin-2-one], the pIC50 in data set [1] is 7.16. Moreover, the solubility thermodynamic in data set [2] came out at 423 µg/mL (≈ 857 µM).
The corresponding values for `CCNc1ncc(-c2ccc3ncc4c(c3c2)n(-c2ccc(N3CC[C@@H](O)C3)nc2C)c(=O)n4C)cc1C(F)(F)F` [Example 34.2, 8-(6-Ethylamino-5-trifluoromethyl-pyridin-3-yl)-1-[6-((R)-3-hydroxy-pyrrolidin-1-yl)-2-methyl-pyridin-3-yl]-3-methyl-1,3-dihydro-imidazo[4,5-c]quinolin-2-one] are 6.87 and 23 µg/mL (≈ 40.8 µM).
With `CCNc1ncc(-c2ccc3ncc4c(c3c2)n(-c2ccc(N3CC[C@@H](O)C3)nc2C)c(=O)n4C)cc1COCC` [Example 34.4, 8-(5-Ethoxymethyl-6-ethylamino-pyridin-3-yl)-1-[6-((R)-3-hydroxy-pyrrolidin-1-yl)-2-methyl-pyridin-3-yl]-3-methyl-1,3-dihydro-imidazo[4,5-c]quinolin-2-one], in data set [1], the pIC50 is 6.34. Further, the solubility thermodynamic in data set [2] turned out to be 172 µg/mL (≈ 311 µM).
